Measured values published in article PMC4096217 (Journal of Medicinal Chemistry, 2014).

Tested on: BR+ cancer cell lines (MX-1, MCF-7, ID8, L1210FR)
Assay: MTT cytotoxicity, 72 h, summarised over the four BR+ cancer cell lines
Format: cell-based
Conditions: Table 1 entries 1 and 2

SB-T-1214 [taxoid 1]
Cytotoxicity relative to camptothecin (times stronger): 148–846 times
